These results are taken from patent publication US6153614A, “Piperazinyl pyrimidine dione compounds selective for adrenoceptors” (Abbott Laboratories, priority 1998, dated 2000).

The Ki is the dissociation constant of the complex between target and ligand, obtained from inhibition or displacement. A higher Ki goes with weaker binding.

Assay [1] deals with T1, α1b (hamster) adrenoceptor (Mesocricetus auratus, UniProt P18841).
T1 construct: expressed in transfected cells; cDNA from TULCO
T1 sequence (P18841 1-515): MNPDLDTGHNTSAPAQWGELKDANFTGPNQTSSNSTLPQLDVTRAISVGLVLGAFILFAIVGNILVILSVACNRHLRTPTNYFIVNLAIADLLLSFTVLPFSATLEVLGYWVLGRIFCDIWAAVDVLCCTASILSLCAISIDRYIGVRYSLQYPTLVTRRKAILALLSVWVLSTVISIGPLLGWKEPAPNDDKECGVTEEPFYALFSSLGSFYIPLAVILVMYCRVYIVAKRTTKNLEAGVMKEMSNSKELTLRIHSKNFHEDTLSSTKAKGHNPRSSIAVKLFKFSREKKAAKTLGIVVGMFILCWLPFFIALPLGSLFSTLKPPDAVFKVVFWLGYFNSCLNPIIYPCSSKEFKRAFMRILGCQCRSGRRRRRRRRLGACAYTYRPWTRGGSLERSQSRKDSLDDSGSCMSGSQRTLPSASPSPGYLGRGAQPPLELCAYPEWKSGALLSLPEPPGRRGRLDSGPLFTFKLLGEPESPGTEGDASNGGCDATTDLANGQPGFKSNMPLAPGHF
The assay can be described thus: Radioligand binding cloned α1b adrenoceptor expressed in LTK cells, [3H]-prazosin. The conditions noted are these: LTK cell membranes, [3H]prazosin 0.2 nM. On the procedure:
(§1) Representative compounds of the invention were evaluated for α-adrenoceptor binding affinity in vitro using [^3 H]-prazosin as the radioligand and two cloned α1 adrenoceptors expressed in LTK cells: α1b (hamster), and α1d (rat). Additionally, binding affinity against the pharmacologically defined α1A adrenoceptor (rat submaxillary gland) was measured.
(§2) The cDNA clones encoding the α-1 adrenoceptors (α1b and α1d) were obtained from TULCO (Triangle Universities Licensing Consortium, Research Triangle Park, N.C.) and inserted into the eukaryotic expression vector SnaB30. In this vector, expression of the adrenoceptor gene is under the transcriptional control of an SV40 early promoter. Positive drug selection is provided by a neomycin-resistance gene. Mouse fibroblast cells (LTK) were transfected with the α1 expression plasmids and grown in Dulbecco's modified Eagle's medium (DMEM) containing 10% fetal calf serum and […] G418. Stable G418-resistant parental lines were generated and successful expression of adrenoceptor protein was monitored using radioligand binding techniques. Stable single cell clones derived from the parental lines were screened in adrenoceptor binding assays to identify clones having high adrenoceptor density. Roller bottle cultures of the cloned lines were used to provide cell membranes for subsequent adrenoceptor binding characterization studies. A cell line containing the SnaB30 vector expressing the human erythropoietin gene served as a negative control.
For adrenoceptor binding assays, large scale membrane preparations were utilized in which 6 million cells were seeded into small (450 cm^2) Corning tissue culture roller bottles. 200 mL of DMEM containing 10% fetal calf serum and […] G418 were added to each roller bottle. A 95% air/5% CO2 gas mixture (sterile) was injected into each roller bottle prior to sealing. The bottles were incubated at 37° C. on a roller rack for 5 days. Cells were re-fed with fresh medium after 3 days in culture.
On the fifth day of culture, growth medium was removed from cells grown in the roller bottles, and the cells were washed twice with PBS (Sigma, 120 mM NaCl, 2.7 mM KCl, 10 mM Na2 HPO4 --NaH2 PO4, pH=7.4). Cells were detached from the roller bottles by incubating for 15 minutes at 37° C. in a Tris-EDTA solution (10 mM Tris, 100 mM NaCl, 1 mM EDTA, pH=7.4). The cell suspension from each roller bottle was decanted into preweighed centrifuge tubes and kept on ice. An aliquot of each cell suspension was generally taken for cell counting. Cells were centrifuged at 3000×G for 5 min at 2-4° C., washed with PBS and recentrifuged. The supernatant was decanted and the pellet was weighed to determine the wet weight of cells. Cells were washed a final time in 40 vol 5 mM Tris-HCl, 5 mM EDTA, pH=7.7, centrifuged at 40,000×G for 10 minutes, homogenized in 10 mL of 50 mM Tris-HCl, 5 mM EDTA (pH=7.4), and diluted to 40 mL/tube. Homogenates were centrifuged at 40,000×G for 10 minutes. The supernatant was decanted and the pellets were rehomogenized in 50 mM Tris-HCl (pH=7.4) and centrifuged as before.
Briefly, plastic Bioblocks™ (DBM Scientific, Valencia, Calif.) were incubated at 25° C. for 50 minutes with […] of membrane homogenate (diluted with an additional 96 volumes (for cloned adrenoceptors, 12 volumes for submaxillary gland)) in 50 mM Tris-HCl buffer (pH=7.7 at the time of assay), […] of [^3 H]prazosin (0.2 nM final concentration, 75-85 Ci/mmole, DuPont-NEN Corp., Boston, Mass.), and […] of either water (for total binding) or […] phentolamine (final concentration, for non-specific binding). Following equilibration, bound radioligand was separated from free on GF/B filters (presoaked in 0.5% polyethyleneamine) using either a Brandel or Packard cell harvester. Radioactivity was determined by standard liquid scintillation techniques.

Assay [2] has as its system EPI induced increase in canine IUP. The assay is described as follows: In vivo intraurethral pressure (IUP) in canines, inhibition of EPI induced increase. More on the design: species or system Beagle dogs. To be noted: in vivo pseudo pA2 by Schild analysis; antagonist i.v.; epinephrine; propranolol-treated dogs; * (tamsulosin): add 0.4 if slope adjusted to 1. On the procedure: The intraurethral pressure (IUP) model in aged canines is an accepted model of measuring the effect of prostate smooth muscle contraction on urethral tone. Canines also have an enclosed prostate covering the urethral shaft and thus provide an anatomical correlate with humans.
Beagle dogs (Marshall Farms) greater that 2 years of age and weighing between 12 and 15 kg were pre-anesthetized with thiopental sodium 15 mg/kg i.v. (Pentothal™, Abbott Laboratories, Abbott Park, Ill.) then placed under general anesthesia (isoflurane). A 7F Swan-Ganz balloon catheter (Multiflex-list no. 41224-01, Abbott) was lubricated with a water soluble jelly, inserted into the urethral orifice and advanced approximately 40 cm in male dogs (considerably less in females) until the balloon tip was placed well inside the bladder. The balloon was then inflated with 1 mL of room air, and the catheter was slowly withdrawn just past the first resistance that is felt at the bladder neck. Preliminary experiments in which dogs were sacrificed after such placement confirmed that this technique results in consistent positioning of the balloon within the prostatic urethra in males or the corresponding location in females. The balloon port of the catheter was connected to a Gould Statham P23Dd pressure transducer interfaced to a computerized data acquisition system (Modular Instruments, Inc., Malvern, Pa.) for the measurement of intraurethral pressure (IUP).
Dogs were then treated with propranolol to block the β-adrenoceptor agonist effects of test agonists. Dose-response curves of the intraurethral pressor effect of epinephrine (EPI) were obtained before and after each of up to 3 increasing doses of a test antagonist (i.v.). Fifteen minutes were allowed after each antagonist dose for equilibration before the next agonist dose-response was initiated. The increase in IUP caused by a given agonist dose was allowed to return to baseline before the next dose was given. The estimated antagonist dissociation constant (in vivo pseudo pA2) was determined by Schild analysis (Brune, et al., Drug Development Research, 34:267-275 (1995).

For the next assay, the target named is T2, α1d (rat) adrenoceptor (Rattus norvegicus, UniProt P23944).
T2 construct: expressed in transfected cells; cDNA from TULCO
T2 sequence (P23944 1-561): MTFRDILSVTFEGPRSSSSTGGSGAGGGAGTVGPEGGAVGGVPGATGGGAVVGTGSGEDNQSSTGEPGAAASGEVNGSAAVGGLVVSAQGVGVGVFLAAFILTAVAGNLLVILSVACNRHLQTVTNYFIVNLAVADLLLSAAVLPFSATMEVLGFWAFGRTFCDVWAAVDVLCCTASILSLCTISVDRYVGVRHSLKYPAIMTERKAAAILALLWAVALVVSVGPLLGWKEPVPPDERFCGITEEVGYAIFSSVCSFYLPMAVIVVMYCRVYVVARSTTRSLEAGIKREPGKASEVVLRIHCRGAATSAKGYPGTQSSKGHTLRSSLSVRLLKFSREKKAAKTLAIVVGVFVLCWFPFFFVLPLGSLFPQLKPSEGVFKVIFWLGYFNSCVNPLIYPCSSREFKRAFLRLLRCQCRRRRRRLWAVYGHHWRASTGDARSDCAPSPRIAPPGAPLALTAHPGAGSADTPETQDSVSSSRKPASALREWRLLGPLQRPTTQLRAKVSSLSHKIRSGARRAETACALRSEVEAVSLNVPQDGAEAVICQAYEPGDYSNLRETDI
The assay can be described thus: Radioligand binding cloned α1d adrenoceptor expressed in LTK cells, [3H]-prazosin. To be noted: LTK cell membranes, [3H]prazosin 0.2 nM. On the procedure: as §1
as §2, with “A cell line containing the SnaB30 vector expressing the human erythropoietin gene served as a negative control.” left out

The target in assay [3] is T3, α1A adrenoceptor (rat submaxillary gland) (Rattus norvegicus, UniProt P43140).
T3 construct: from tissue; host or cells: rat submaxillary gland membranes
T3 sequence (P43140 1-466): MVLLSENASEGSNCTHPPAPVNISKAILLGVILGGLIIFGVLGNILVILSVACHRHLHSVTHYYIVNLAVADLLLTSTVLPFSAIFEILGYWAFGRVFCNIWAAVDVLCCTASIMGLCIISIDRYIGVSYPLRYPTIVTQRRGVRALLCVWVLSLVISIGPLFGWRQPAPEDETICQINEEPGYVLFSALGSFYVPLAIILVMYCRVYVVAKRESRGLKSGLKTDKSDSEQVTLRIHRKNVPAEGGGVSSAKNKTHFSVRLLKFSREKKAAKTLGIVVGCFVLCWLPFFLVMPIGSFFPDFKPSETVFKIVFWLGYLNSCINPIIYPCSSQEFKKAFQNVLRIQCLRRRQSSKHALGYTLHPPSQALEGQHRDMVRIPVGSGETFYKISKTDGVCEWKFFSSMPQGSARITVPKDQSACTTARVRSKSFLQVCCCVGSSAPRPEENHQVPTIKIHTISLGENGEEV
The assay can be described thus: Radioligand binding α1A (rat submaxillary gland), [3H]-prazosin. On the procedure:
as §1
On the fifth day of culture, growth medium was removed from cells grown in the roller bottles, and the cells were washed twice with PBS (Sigma, 120 mM NaCl, 2.7 mM KCl, 10 mM Na2 HPO4 --NaH2 PO4, pH=7.4). Cells were detached from the roller bottles by incubating for 15 minutes at 37° C. in a Tris-EDTA solution (10 mM Tris, 100 mM NaCl, 1 mM EDTA, pH=7.4). […]
Briefly, plastic Bioblocks™ (DBM Scientific, Valencia, Calif.) were incubated at 25° C. for 50 minutes with […] of membrane homogenate (diluted with an additional 96 volumes (for cloned adrenoceptors, 12 volumes for submaxillary gland)) in 50 mM Tris-HCl buffer (pH=7.7 at the time of assay), […] of [^3 H]prazosin (0.2 nM final concentration, 75-85 Ci/mmole, DuPont-NEN Corp., Boston, Mass.), and […] of either water (for total binding) or […] phentolamine (final concentration, for non-specific binding). […] Radioactivity was determined by standard liquid scintillation techniques.

Regarding `COc1ccccc1N1CCN(CCn2c(=O)c3c(-c4ccccc4)csc3n(C)c2=O)CC1` [Example 3, 3-[4-(2-methoxyphenyl)piperazinylethyl]-1-methyl-5-phenylthieno[2,3-d]pyrimidine-2,4-dione], in assay [1], the Ki is 4.47 nM.

`COc1ccccc1N1CCN(CCn2c(=O)[nH]c3scc(-c4ccccc4)c3c2=O)CC1` [Example 1, 3-[4-(2-methoxyphenyl)piperazinylethyl]-5-phenylthieno[2,3-d]pyrimidine-2,4-dione] showed an inhibition constant (Ki) in assay [1] of 3.41 nM. Moreover, the “IUP (pA2)” value in assay [2] worked out at 7.95.

In turn, `COc1ccccc1N1CCN(CCn2c(=O)[nH]c3scc(-c4cccc(C)c4)c3c2=O)CC1` [Example 4, 3-[4-(2-methoxyphenyl)piperazinylethyl]-5-(3-methylphenyl)thieno[2,3-d]pyrimidine-2,4-dione] registered a Ki in assay [1] of 2.74 nM.

`COc1cc2nc(N3CCN(C(=O)C4CCCO4)CC3)nc(N)c2cc1OC` (stereo not drawn) [terazosin, reference compound] came in with a Ki on α1d (rat) adrenoceptor of 1.01 nM. In addition, in assay [2], the “IUP (pA2)” value amounted to 6.97.

On to `COc1ccccc1N1CCN(CCn2c(=O)[nH]c3sc(-c4ccccc4)cc3c2=O)CC1` [Example 5, 3-[4-(2-methoxyphenyl)piperazinylethyl]-6-phenylthieno[2,3-d]pyrimidine-2,4-dione], for which, in assay [1], the affinity, expressed as Ki, was 1.86 nM. Besides, the “IUP (pA2)” value in assay [2] is recorded as 8.47.

Take `COc1ccccc1N1CCN(CCn2c(=O)[nH]c3sc(C)c(-c4ccccc4)c3c2=O)CC1` [Example 2, 3-[4-(2-methoxyphenyl)piperazinylethyl]-6-methyl-5-phenylthieno[2,3-d]pyrimidine-2,4-dione]: the affinity in assay [1], expressed as Ki, was 2.44 nM.

Consider `CCOc1ccccc1OCCN[C@H](C)Cc1ccc(OC)c(S(N)(=O)=O)c1` [tamsulosin, reference compound], for which the values for the inhibition constant (Ki) in assay [3] and in assay [1] were 0.028 nM and 0.204 nM, respectively. Moreover, the “IUP (pA2)” value in assay [2] was determined as 8.91.
